Tests used:
[1] = target: T1, human full length PIK3KA Wild-type (p110α/p85α complex) (Homo sapiens, UniProt P42336); assay: PI3K-alpha kinase (PIK3CA) biochemical activity, wild-type, ADP-Glo; details: PI3K-α (PIK3CA) biochemical, Soy PI lipid substrate
T1 construct: Recombinant, catalytically active human full length PIK3KA Wild-type and H1047R mutant were purchased as 1:1 complex; 6xHis (N); purchased EMD Millipore Sigma 14-602M
In short: (§1)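 ADP formation, read by ADP-Glo, is run to about 10% ATP turnover at 27 °C with 20 μM ATP and 50 μM PIP2diC8 or soy PI. WT or H1047R p110α/p85α (1–5 nM) is pre-incubated 1 h with compound in HEPES pH 7.4/MgCl2/Triton buffer, 1% DMSO. 10-point 1:3 series, logistic IC50 versus no-enzyme and DMSO controls.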

[2] = target: T2, human full length PIK3KA H1047R mutant (p110α/p85α complex) (Homo sapiens, UniProt P42336, H1047R); assay: PI3K-alpha kinase (PIK3CA) biochemical activity, H1047R mutant, ADP-Glo; details: PI3K-α (PIK3CA) biochemical, H1047R mutant, Soy PI lipid substrate
T2 construct: Recombinant, catalytically active human full length PIK3KA Wild-type and H1047R mutant were purchased as 1:1 complex; 6xHis (N); purchased EMD Millipore Sigma 14-792M
T2 sequence (P42336 whole entry H1047R): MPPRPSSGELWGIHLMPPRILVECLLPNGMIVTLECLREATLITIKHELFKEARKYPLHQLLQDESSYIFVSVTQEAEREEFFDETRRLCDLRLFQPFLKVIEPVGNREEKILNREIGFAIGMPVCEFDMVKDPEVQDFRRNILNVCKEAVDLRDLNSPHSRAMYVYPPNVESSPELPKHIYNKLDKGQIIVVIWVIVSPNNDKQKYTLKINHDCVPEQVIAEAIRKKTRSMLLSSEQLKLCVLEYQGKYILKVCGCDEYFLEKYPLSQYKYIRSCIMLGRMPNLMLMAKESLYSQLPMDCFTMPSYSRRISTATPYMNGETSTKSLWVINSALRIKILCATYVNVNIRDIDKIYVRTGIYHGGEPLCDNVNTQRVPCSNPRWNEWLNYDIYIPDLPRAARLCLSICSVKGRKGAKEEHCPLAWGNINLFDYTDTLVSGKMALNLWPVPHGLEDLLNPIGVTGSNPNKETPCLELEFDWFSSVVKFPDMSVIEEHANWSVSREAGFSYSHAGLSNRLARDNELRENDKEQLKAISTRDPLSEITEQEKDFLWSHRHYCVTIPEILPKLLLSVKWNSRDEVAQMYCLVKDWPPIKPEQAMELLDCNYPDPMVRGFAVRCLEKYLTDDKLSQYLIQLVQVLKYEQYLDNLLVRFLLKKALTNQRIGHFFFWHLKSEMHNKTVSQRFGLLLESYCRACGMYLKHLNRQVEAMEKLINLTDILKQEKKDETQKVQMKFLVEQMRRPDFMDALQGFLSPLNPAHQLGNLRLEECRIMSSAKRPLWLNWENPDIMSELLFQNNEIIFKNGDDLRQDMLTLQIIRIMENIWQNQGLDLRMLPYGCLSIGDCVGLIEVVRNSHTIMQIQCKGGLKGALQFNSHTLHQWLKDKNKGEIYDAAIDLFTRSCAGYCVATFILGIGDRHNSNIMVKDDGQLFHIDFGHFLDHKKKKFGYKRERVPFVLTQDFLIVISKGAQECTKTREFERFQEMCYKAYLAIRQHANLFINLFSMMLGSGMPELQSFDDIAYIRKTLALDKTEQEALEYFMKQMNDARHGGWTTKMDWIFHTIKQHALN
T2 sequence (P27986 whole entry partner): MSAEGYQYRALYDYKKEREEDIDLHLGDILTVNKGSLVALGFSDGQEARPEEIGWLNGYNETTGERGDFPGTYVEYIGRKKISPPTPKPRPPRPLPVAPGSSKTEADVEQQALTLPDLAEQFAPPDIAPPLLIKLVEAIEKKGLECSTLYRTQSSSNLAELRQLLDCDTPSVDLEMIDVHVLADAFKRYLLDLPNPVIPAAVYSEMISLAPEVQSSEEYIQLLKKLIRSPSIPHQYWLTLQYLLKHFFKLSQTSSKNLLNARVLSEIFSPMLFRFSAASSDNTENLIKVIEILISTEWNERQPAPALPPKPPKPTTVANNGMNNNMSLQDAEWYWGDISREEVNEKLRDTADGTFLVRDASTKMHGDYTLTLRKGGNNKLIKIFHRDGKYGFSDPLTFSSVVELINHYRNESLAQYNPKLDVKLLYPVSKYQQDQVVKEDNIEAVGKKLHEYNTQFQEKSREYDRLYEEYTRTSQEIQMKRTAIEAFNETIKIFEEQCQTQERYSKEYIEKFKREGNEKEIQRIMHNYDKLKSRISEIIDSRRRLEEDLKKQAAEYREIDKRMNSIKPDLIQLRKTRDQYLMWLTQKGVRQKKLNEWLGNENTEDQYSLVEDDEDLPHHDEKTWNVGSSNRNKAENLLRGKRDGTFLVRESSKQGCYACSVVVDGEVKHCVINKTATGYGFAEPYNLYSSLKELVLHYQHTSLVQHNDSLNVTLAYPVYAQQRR
In short: as §1

[3] = system: PI3K-α (PIK3CA) in MDA-MB-453 cells; assay: PI3K-alpha kinase (PIK3CA) activity in vitro cell based assay, MDA-MB-453 cells, AlphaLisa SureFire; details: 0% FBS, 3 hours treatment, relative IC50
In short: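 MDA-MB-453 cells in serum-free MEM with 1 μg/mL insulin treated 3 h with 10-point 1:3 compound dilutions, 0.3% DMSO. Lysates read by AlphaLisa SureFire; percent inhibition relative to DMSO (max) and 1 μM GDC-0032 (min), duplicate means fitted to 4-parameter logistic for relative IC50.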

IC50 [1] [nM]	IC50 [2] [nM]	IC50 [3] [nM]	IC50 ([3]; Homo sapiens, MDA-MB-453, 3 h) [nM]	Structure (SMILES)
500 to 1000	< 500	< 50	–	COc1ccc(NC(C)c2cc(C)cc3c(=O)c(C)c(-c4ccccc4)oc23)c(C(=O)O)n1 (single isomer, unassigned; isomer 1) [Example 109, 3-[1-(3,6-Dimethyl-4-oxo-2-phenyl-chromen-8-yl)ethylamino]-6-methoxy-pyridine-2-carboxylic acid, Isomer 1]
500 to 1000	< 500	–	< 50	Cc1cc([C@@H](C)Nc2ccccc2C(=O)O)c2oc(-c3cccc(C#N)c3)c(C)c(=O)c2c1 [Example 30, 2-[[(1R)-1-[2-(3-Cyanophenyl)-3,6-dimethyl-4-oxo-chromen-8-yl]ethyl]amino]benzoic acid]
< 500	< 500	–	< 50	Cc1cc([C@@H](C)Nc2ccc(Br)nc2C(=O)O)c2oc(-c3cccc(C#N)c3)c(C)c(=O)c2c1 [Example 141, 6-Bromo-3-[[(1R)-1-[2-(3-cyanophenyl)-3,6-dimethyl-4-oxo-chromen-8-yl]ethyl]amino]pyridine-2-carboxylic acid]
1000 to 5000	< 500	–	< 50	Cc1cc([C@@H](C)Nc2ccccc2C(=O)O)c2oc(-c3cccc(F)c3)c(C)c(=O)c2c1 [Example 28, 2-[[(1R)-1-[2-(3-Fluorophenyl)-3,6-dimethyl-4-oxo-chromen-8-yl]ethyl]amino]benzoic acid]
500 to 1000	< 500	–	< 50	Cc1c(-c2ccc(F)cc2F)oc2c([C@@H](C)Nc3ccc(Cl)nc3C(=O)O)cc(C(F)(F)F)cc2c1=O [Example 99, 6-Chloro-3-[[(1R)-1-[2-(2,4-difluorophenyl)-3-methyl-4-oxo-6-(trifluoromethyl)-chromen-8-yl]ethyl]amino]pyridine-2-carboxylic acid]
1000 to 5000	< 500	–	< 50	Cc1cc(C(C)Nc2ccccc2C(=O)O)c2oc(-c3ccccc3)c(F)c(=O)c2c1 (single isomer, unassigned; isomer 1) [Example 132, 2-[1-(3-Fluoro-6-methyl-4-oxo-2-phenyl-chromen-8-yl)ethylamino]benzoic acid, Isomer 1]
5000 to 10000	500 to 1000	–	50 to 100	Cc1cc([C@@H](C)Nc2cccnc2C(=O)O)c2oc(-c3cccc(C#N)c3)c(C)c(=O)c2c1 [Example 125, 3-[[(1R)-1-[2-(3-Cyanophenyl)-3,6-dimethyl-4-oxo-chromen-8-yl]ethyl]amino]pyridine-2-carboxylic acid]
> 10000	1000 to 5000	–	50 to 100	Cc1c(-c2ccccc2)oc2c([C@@H](C)Nc3cccnc3C(=O)O)cc(C(F)(F)F)cc2c1=O [Example 122, 3-[[(1R)-1-[3-Methyl-4-oxo-2-phenyl-6-(trifluoromethyl)-chromen-8-yl]ethyl]amino]pyridine-2-carboxylic acid]
1000 to 5000	< 500	–	< 50	Cc1cc([C@@H](C)Nc2ccccc2C(=O)O)c2oc(-c3ccccc3F)c(C)c(=O)c2c1 [Example 44, 2-[[(1R)-1-[2-(2-Fluorophenyl)-3,6-dimethyl-4-oxo-chromen-8-yl]ethyl]amino]benzoic acid]
5000 to 10000	< 500	–	< 50	Cc1cc([C@@H](C)Nc2ccccc2C(=O)O)c2oc(-c3ccc(-c4ncco4)cc3)cc(=O)c2c1 [Example 32, 2-[[(1R)-1-[6-Methyl-2-(4-oxazol-2-ylphenyl)-4-oxo-chromen-8-yl]ethyl]amino]benzoic acid]
500 to 1000	< 500	–	< 50	Cc1cc([C@@H](C)Nc2ccc(Cl)cc2C(=O)O)c2oc(-c3cccc(C#N)c3)c(C)c(=O)c2c1 [Example 144, 5-Chloro-2-[[(1R)-1-[2-(3-cyanophenyl)-3,6-dimethyl-4-oxo-chromen-8-yl]ethyl]amino]benzoic acid]
> 10000	1000 to 5000	–	50 to 100	Cc1cc([C@@H](C)Nc2cccnc2C(=O)O)c2oc(-c3ccccc3F)c(C)c(=O)c2c1 [Example 142, 3-[[(1R)-1-[2-(2-Fluorophenyl)-3,6-dimethyl-4-oxo-chromen-8-yl]ethyl]amino]pyridine-2-carboxylic acid]
1000 to 5000	< 500	–	< 50	CNC(=O)c1ccc(-c2oc3c([C@@H](C)Nc4ccccc4C(=O)O)cc(C)cc3c(=O)c2C)cc1 [Example 151, 2-[[(1R)-1-[3,6-Dimethyl-2-[4-(methylcarbamoyl)phenyl]-4-oxo-chromen-8-yl]ethyl]amino]benzoic acid]
1000 to 5000	< 500	–	< 50	COC(=O)c1cccc(-c2oc3c([C@@H](C)Nc4ccccc4C(=O)O)cc(C)cc3c(=O)c2C)c1 [Example 150, 2-[[(1R)-1-[2-(3-Methoxycarbonylphenyl)-3,6-dimethyl-4-oxo-chromen-8-yl]ethyl]amino]benzoic acid]
1000 to 5000	500 to 1000	–	< 50	Cc1cc([C@@H](C)Nc2ccccc2C(=O)O)c2oc(-c3cccc(-c4cc[nH]n4)c3)c(C)c(=O)c2c1 [Example 166, 2-[[(1R)-1-[3,6-Dimethyl-4-oxo-2-[3-(1H-pyrazol-3-yl)phenyl]chromen-8-yl]ethyl]amino]benzoic acid]
1000 to 5000	500 to 1000	–	50 to 100	Cc1cc([C@@H](C)Nc2ccccc2C(=O)O)c2oc(-c3ccc(-c4cn[nH]c4)cc3)cc(=O)c2c1 [Example 163, 2-[[(1R)-1-[6-Methyl-4-oxo-2-[4-(1H-pyrazol-4-yl)phenyl]chromen-8-yl]ethyl]amino]benzoic acid]
1000 to 5000	< 500	–	50 to 100	Cc1cc([C@@H](C)Nc2ccc(C)nc2C(=O)O)c2oc(-c3cccc(C#N)c3)c(C)c(=O)c2c1 [Example 127, 3-[[(1R)-1-[2-(3-Cyanophenyl)-3,6-dimethyl-4-oxo-chromen-8-yl]ethyl]amino]-6-methyl-pyridine-2-carboxylic acid]
500 to 1000	< 500	–	< 50	COc1ccc(N[C@H](C)c2cc(C)cc3c(=O)c(C)c(-c4ccccc4)oc23)c(C(=O)O)n1 [Example 135, 6-Methoxy-3-[[(1R)-1-(3,6-dimethyl-4-oxo-2-phenyl-chromen-8-yl)ethyl]amino]pyridine-2-carboxylic acid 2,2,2-trifluoroacetic acid]
1000 to 5000	< 500	–	< 50	Cc1cc([C@@H](C)Nc2ccccc2C(=O)O)c2oc(-c3cccc(C(C)(C)C#N)c3)c(C)c(=O)c2c1 [Example 117, 2-[[(1R)-1-[2-[3-(1-Cyano-1-methyl-ethyl)phenyl]-3,6-dimethyl-4-oxo-chromen-8-yl]ethyl]amino]benzoic acid 2,2,2-trifluoroacetic acid]
> 10000	> 10000	–	> 500	Cc1cc(C(C)Nc2ccccc2C(=O)O)c2oc(-c3cccc(C(C)(C)C#N)c3)cc(=O)c2c1 (single isomer, unassigned; isomer 1) [Example 4, 2-[1-[2-[3-(1-Cyano-1-methyl-ethyl)phenyl]-6-methyl-4-oxo-chromen-8-yl]ethylamino]benzoic acid, Isomer 1]

Source: US11873295B2, “Allosteric chromenone inhibitors of phosphoinositide 3-kinase (PI3K) for the treatment of disease” (Petra Pharma Corporation, priority 2021, dated 2024)
